Experimental findings from patent US20250304576A1 (Cancer Research Technology Limited, priority 2022, published 2025) are described below.

What is called IC50 is the concentration that inhibits the measured activity by half. Low readings indicate higher potency, high ones lower potency.

Like-named read-outs stand apart in the source and are kept apart here.

The target of test [1] is T1, Recombinant IKKβ (Homo sapiens, UniProt O14920).
T1 construct: purchased Millipore, Dundee, UK
T1 sequence (O14920 1-756): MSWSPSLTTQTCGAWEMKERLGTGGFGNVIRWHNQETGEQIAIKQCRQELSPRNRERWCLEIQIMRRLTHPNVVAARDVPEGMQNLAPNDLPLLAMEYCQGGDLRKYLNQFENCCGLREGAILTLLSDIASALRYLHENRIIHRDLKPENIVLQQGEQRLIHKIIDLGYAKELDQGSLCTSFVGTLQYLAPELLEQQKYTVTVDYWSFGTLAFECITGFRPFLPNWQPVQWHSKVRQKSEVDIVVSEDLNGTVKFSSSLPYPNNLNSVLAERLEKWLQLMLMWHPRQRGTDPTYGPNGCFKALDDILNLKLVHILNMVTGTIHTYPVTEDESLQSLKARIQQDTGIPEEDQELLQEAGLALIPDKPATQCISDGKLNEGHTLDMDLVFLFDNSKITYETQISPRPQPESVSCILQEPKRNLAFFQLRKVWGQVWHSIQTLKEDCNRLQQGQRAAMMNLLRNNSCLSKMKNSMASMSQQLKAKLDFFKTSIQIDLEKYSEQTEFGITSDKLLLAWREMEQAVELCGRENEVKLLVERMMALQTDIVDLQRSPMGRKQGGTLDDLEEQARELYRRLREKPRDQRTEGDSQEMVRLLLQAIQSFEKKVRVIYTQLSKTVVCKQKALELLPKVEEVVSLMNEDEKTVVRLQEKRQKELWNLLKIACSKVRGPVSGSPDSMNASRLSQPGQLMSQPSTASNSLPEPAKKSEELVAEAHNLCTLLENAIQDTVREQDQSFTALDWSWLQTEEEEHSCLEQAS
Put plainly: DELFIA IKKβ kinase assay (apparent Ki, Cheng-Prusoff). In kind it is biochemical. In a few lines:
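Recombinant IKKα or IKKβ (37 nM) with 0.375 μM biotinylated IκB-α (Ser32) peptide and 40 μM ATP in 40 mM Tris-HCl pH 7.5, 20 mM MgCl2, 60 min at 30° C. Phospho-substrate captured on streptavidin and detected by anti-phospho-IκB-α plus europium anti-mouse IgG time-resolved fluorescence; apparent Ki via Cheng-Prusoff.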

Test [2] addresses T2, IKBKB (IKKβ) (Homo sapiens, UniProt O14920).
T2 construct: purchased Life Technologies (assay performed by the vendor)
T2 sequence (O14920 1-756): T1 sequence (O14920 1-756)
Put plainly: Z'-LYTE IKKβ assay (Life Technologies). In kind it is biochemical. The protocol:
IKKα and IKKβ inhibitory activity was determined using three different assays: a dissociation enhanced ligand fluorescent immunoassay (DELFIA) based on the protocol of HTScan™ IKKβ Kinase Assay (Cell Signaling Technology, USA); an Adapta IKKα assay (performed by Life Technologies); a Z′-LYTE™ IKKβ assay (performed by Life Technologies).
The reaction was performed in low volume NBS, black 384-well plates (Corning model 4514).
The test compounds were screened in 1% DMSO (final) in the well. For 10 point titrations, 3-fold serial dilutions were conducted from the starting concentration of 50 mM.
The 2× IKBKB (IKKβ)/Ser/Thr 05 mixture was prepared in 50 mM HEPES pH 7.5, 0.01% BRIJ-35, 10 mM MgCl2, 1 mM EGTA. The final 10 μL Kinase Reaction consisted of 0.62-4 ng IKBKB (IKKβ) and 2 μM Ser/Thr 05 in 50 mM HEPES pH 7.5, 0.01% BRIJ-35, 10 mM MgCl2, 1 mM EGTA.
5 μL of 2× Kinase reaction was incubated with 2.5 μL of ATP solution diluted to a 4× working concentration in Kinase Buffer (50 mM HEPES pH 7.5, 0.01% BRIJ-35, 10 mM MgCl2, 1 mM EGTA) in the presence of […] of 100× test compound in 100% DMSO and 2.4 μL of Kinase buffer.
The resulting kinase reaction was allowed to incubate for 1 hour at room temperature before 5 μL of a 1:64 dilution of Development Reagent B was added and the resulting Development Reaction was incubated for another hour at room temperature. Then the plate was read on a fluorescence plate reader and the data analysed.
A ratiometric method, which calculated the Emission Ratio of donor emission (i.e. coumarin) to acceptor emission (i.e. fluorescein) after excitation of the donor fluorophore at 400 nm, was used to quantitate reaction progress, as shown in the equation below.

The mark [3] stands for this setting: non-italicised figure: DELFIA assay.
[4] abbreviates: DELFIA assay (first line of an example).

`CC(C)(C)C#Cc1c(-c2ccc3[nH]nc(N)c3c2)ccnc1N` [Example 72, 5-(2-Amino-3-(3,3-dimethylbut-1-yn-1-yl)pyridine-4-yl)-1H-indazol-3-amine]: the Ki in test [1] (setting [3]) was determined as 268 nM. The compound also gave an IC50 in test [2] (Life Technologies assay) of 65 nM.

Take `Nc1nccc(-c2ccc3[nH]nc(N)c3c2)c1C#CC1CCCC1` [Example 73, 5-(2-Amino-3-(cyclopentylethynyl)pyridine-4-yl)-1H-indazol-3-amine]: the Ki in test [1] (setting [3]) turned out to be 289 nM. For the same compound, 206 nM corresponded to half-maximal inhibition in test [2] (Life Technologies assay) (IC50).

Regarding `Nc1nccc(-c2ccc3[nH]nc(N)c3c2)c1C#CC1CCCCC1` [Example 74, 5-(2-Amino-3-(cyclohexylethynyl)pyridine-4-yl)-1H-indazol-3-amine], the Ki in test [1] (setting [3]) stood at 342 nM. The same compound showed an IC50 in test [2] (Life Technologies assay) of 342 nM.

`Nc1nccc(-c2ccc3[nH]nc(N)c3c2)c1C#Cc1ccccc1` [Example 75, 5-(2-Amino-3-(phenylethynyl)pyridine-4-yl)-1H-indazol-3-amine]: the Ki in test [1] (setting [3]) is 152 nM. For the same compound, the 50% inhibitory concentration (IC50) in test [2] (Life Technologies assay) amounted to 101 nM.

For the compound `Nc1nccc(-c2ccc3[nH]nc(N)c3c2)c1C#CCO` [Example 83, 3-(2-Amino-4-(3-amino-1H-indazol-5-yl)pyridine-3-yl)prop-2-yn-1-ol], the Ki in test [1] (setting [3]) worked out at 402 nM. The compound also yielded an IC50 in test [2] (Life Technologies assay) of 36 nM.

For `Nc1nccc(-c2ccc3[nH]nc(N)c3c2)c1C#CCCO` [Example 84, 4-(2-Amino-4-(3-amino-1H-indazol-5-yl)pyridine-3-yl)but-3-yn-1-ol], in test [1] (setting [3]), the Ki worked out at 103 nM. Further, the concentration for half-maximal inhibition (IC50) in test [2] (Life Technologies assay) was 53 nM.

As to `Nc1nccc(-c2ccc3[nH]nc(N)c3c2)c1C#CCCCO` [Example 85, 5-(2-Amino-4-(3-amino-1H-indazol-5-yl)pyridine-3-yl)pent-4-yn-1-ol], the Ki in test [1] (setting [3]) amounted to 96 nM. The same compound gave a 50% inhibitory concentration (IC50) in test [2] (Life Technologies assay) of 25 nM.

On to `CC(C)(O)C#Cc1c(-c2ccc3[nH]nc(N)c3c2)ccnc1N` [Example 87, 4-(2-Amino-4-(3-amino-1H-indazol-5-yl)pyridine-3-yl)-2-methylbut-3-yn-2-ol], for which the Ki in test [1] (setting [3]) amounted to 294 nM. Inhibition in test [2] (Life Technologies assay) was half-maximal at 36 nM (IC50).

For the compound `CC(C)(C)OCC#Cc1c(-c2ccc3[nH]nc(N)c3c2)ccnc1N` [Example 88, 5-(2-Amino-3-(3-(tert-butoxy)prop-1-yn-1-yl)pyridine-4-yl)-1H-indazol-3-amine], in test [1] (setting [3]), the Ki was 2340 nM. Further, the midpoint of inhibition in test [2] (Life Technologies assay), the IC50, lay at 442 nM.

Consider `Nc1nccc(-c2ccc3[nH]nc(N)c3c2)c1C#CC1(O)CCCCC1` [Example 90, 1-((2-Amino-4-(3-amino-1H-indazol-5-yl)pyridine-3-yl)ethynyl)cyclohexan-1-ol], for which the Ki in test [1] (setting [3]) stood at 1410 nM. The same compound returned a 50% inhibitory concentration (IC50) in test [2] (Life Technologies assay) of 205 nM.

Consider `Nc1nccc(-c2ccc3[nH]nc(N)c3c2)c1C#CC1(O)CCCCCC1` [Example 91, 1-((2-Amino-4-(3-amino-1H-indazol-5-yl)pyridine-3-yl)ethynyl)cycloheptan-1-ol], for which, in test [1] (setting [3]), the Ki worked out at 3090 nM. The midpoint of inhibition in test [2] (Life Technologies assay), the IC50, lay at 505 nM.

With `CC(C)(N)C#Cc1c(-c2ccc3[nH]nc(N)c3c2)ccnc1N` [Example 92, 5-(2-Amino-3-(3-amino-3-methylbut-1-yn-1-yl)pyridin-4-yl)-1H-indazol-3-amine], the Ki in test [1] (setting [3]) was 325 nM. The same compound returned a concentration for half-maximal inhibition (IC50) in test [2] (Life Technologies assay) of 87 nM.

On to `Nc1nccc(-c2ccc3[nH]nc(N)c3c2)c1C#CCCN1CCCCC1` [Example 93, 5-(2-Amino-3-(4-(piperidin-1-yl)but-1-yn-1-yl)pyridin-4-yl)-1H-indazol-3-amine], for which, in test [1] (setting [3]), the Ki was 880 nM. In test [2] (Life Technologies assay), the IC50 was found to be 254 nM.

Take `Nc1nccc(-c2ccc3[nH]nc(N)c3c2)c1C#CCCCN1CCCCC1` [Example 95, 5-(2-Amino-3-(5-(piperidin-1-yl)pent-1-yn-1-yl)pyridin-4-yl)-1H-indazol-3-amine]: the Ki in test [1] (setting [3]) worked out at 3270 nM. Moreover, in test [2] (Life Technologies assay), the IC50 is 545 nM.

On to `Nc1nccc(-c2ccc3[nH]nc(N)c3c2)c1C#CCCCN1CCOCC1` [Example 96, 5-(2-Amino-3-(5-morpholinopent-1-yn-1-yl)pyridin-4-yl)-1H-indazol-3-amine], for which, in test [1] (setting [3]), the Ki is 1150 nM. In test [2] (Life Technologies assay), this compound yielded a half-inhibitory concentration (IC50) of 705 nM.

As for `Nc1nccc(-c2ccc3[nH]nc(N)c3c2)c1C#CCCC(=O)N1CCOCC1` [Example 99, 5-(2-Amino-4-(3-amino-1H-indazol-5-yl)pyridine-3-yl)-1-morpholinopent-4-yn-1-one], the Ki in test [1] (setting [3]) was found to be 531 nM. For the same compound, half-maximal inhibition in test [2] (Life Technologies assay) (IC50) required 264 nM.

Consider `Nc1cc(-c2cc(-c3ccccc3)c3[nH]nc(N)c3c2)ccn1` [Example 104, 5-(2-Aminopyridin-4-yl)-7-phenyl-1H-indazol-3-amine], for which, in test [1] (setting [3]), the Ki is 838 nM. The compound further came in with an IC50 in test [2] (Life Technologies assay) of 162 nM.

Regarding `Nc1cc(-c2cc(-c3ccoc3)c3[nH]nc(N)c3c2)ccn1` [Example 129, 5-(2-Aminopyridin-4-yl)-7-(furan-3-yl)-1H-indazol-3-amine], the Ki in test [1] (setting [3]) came out at 511 nM. In test [2] (Life Technologies assay), this compound registered an IC50 of 135 nM.

As for `CC(C)(C)C#Cc1cc(-c2ccnc(N)c2)cc2c(N)n[nH]c12` [Example 137, 5-(2-Aminopyridin-4-yl)-7-(3,3-dimethylbut-1-yn-1-yl)-1H-indazol-3-amine], the Ki in test [1] (setting [3]) came out at 1470 nM. For the same compound, in test [2] (Life Technologies assay), the IC50 was determined as 2300 nM.

In the case of `CC(C)(O)C#Cc1cc(-c2ccnc(N)c2)cc2c(N)n[nH]c12` [Example 140, 4-(3-Amino-5-(2-aminopyridin-4-yl)-1H-indazol-7-yl)-2-methylbut-3-yn-2-ol], the Ki in test [1] (setting [3]) was 3000 nM. Moreover, half-maximal inhibition in test [2] (Life Technologies assay) (IC50) was put at 3090 nM.

Regarding `C#Cc1cc(-c2ccnc3[nH]ccc23)cc2c(N)n[nH]c12` [Example 200, 7-Ethynyl-5-(1H-pyrrolo[2,3-b]pyridin-4-yl)-1H-indazol-3-amine], the Ki in test [1] (setting [4]) came out at 137 nM. This compound also returned an IC50 in test [2] of 158 nM.

Take `CC(C)(C)C#Cc1cc(-c2ccnc3[nH]ccc23)cc2c(N)n[nH]c12` [Example 201, 7-(3,3-Dimethylbut-1-yn-1-yl)-5-(1H-pyrrolo[2,3-b]pyridin-4-yl)-1H-indazol-3-amine]: the Ki in test [1] (setting [4]) amounted to 1390 nM. The compound further showed a 50% inhibitory concentration (IC50) in test [2] of 1200 nM.

As for `Nc1n[nH]c2c(C#CC3CC3)cc(-c3ccnc4[nH]ccc34)cc12` [Example 202, 7-(Cyclopropylethynyl)-5-(1H-pyrrolo[2,3-b]pyridin-4-yl)-1H-indazol-3-amine], the Ki in test [1] (setting [4]) was 181 nM. Moreover, the midpoint of inhibition in test [2], the IC50, lay at 470 nM.

As for `Nc1n[nH]c2c(C#CC3CCCC3)cc(-c3ccnc4[nH]ccc34)cc12` [Example 203, 7-(Cyclopentylethynyl)-5-(1H-pyrrolo[2,3-b]pyridin-4-yl)-1H-indazol-3-amine], in test [1] (setting [4]), the Ki came to 452 nM. It took 1530 nM to reach half-maximal inhibition in test [2] (IC50).

Turning to `Nc1n[nH]c2c(C#CC3CCCCC3)cc(-c3ccnc4[nH]ccc34)cc12` [Example 204, 7-(Cyclohexylethynyl)-5-(1H-pyrrolo[2,3-b]pyridin-4-yl)-1H-indazol-3-amine], the Ki in test [1] (setting [4]) came out at 1180 nM. In addition, in test [2], the concentration for half-maximal inhibition (IC50) came out at 13500 nM.

Turning to `CC(C)(O)C#Cc1cc(-c2ccnc3[nH]ccc23)cc2c(N)n[nH]c12` [Example 206, 4-(3-Amino-5-(1H-pyrrolo[2,3-b]pyridin-4-yl)-1H-indazol-7-yl)-2-methylbut-3-yn-2-ol], the Ki in test [1] (setting [4]) was determined as 1520 nM. The compound further yielded an IC50 in test [2] of 294 nM.

With `Nc1n[nH]c2c(C#CCCCN3CCOCC3)cc(-c3ccnc4[nH]ccc34)cc12` [Example 210, 7-(5-Morpholinopent-1-yn-1-yl)-5-(1H-pyrrolo[2,3-b]pyridin-4-yl)-1H-indazol-3-amine], in test [1] (setting [4]), the Ki is 3100 nM. Besides, in test [2], the IC50 stood at 1030 nM.
